The test system of the test is human platelets in platelet-rich plasma (PRP). Kind of test: Platelet aggregation inhibition assay (ADP-induced, aggregometer). As to conditions: fresh human PRP, 250,000 platelets/μL; aggregation induced with 20 micromolar ADP at 37° C.; inhibitor added about 1 min before ADP; read-out: IC50 (concentration of inhibitor that reduced the extent of platelet aggregation by 50%). In kind it is cell-based. Here is the method:
Platelet aggregation studies were performed essentially as described by Zucker (1989, Methods in Enzymol. 169: 117-133). Briefly, platelet aggregation was assayed with or without putative platelet aggregation inhibitory compounds using fresh human platelet-rich plasma (PRP), comprising 250,000 platelets per microlitre. Whole human blood (36 mL) were freshly drawn from volunteers who were medication-free for at least 2 weeks prior to blood draw. Blood was drawn into 4 mL of a 0.1M sodium citrate solution and centrifuged (150 g for 20 min at 22° C.) to pellet red blood cells. The supernatant, comprising PRP, was removed and the remaining blood recentrifuged at 8000 g for 10 min to produce platelet-poor plasma (PPP; used to dilute the PRP to a final concentration of 250,000 platelets/μL). Alternatively, PPP was prepared by centrifugation of PRP for 1 min in a tabletop microcentrifuge. PPP is also used as a negative control for platelet aggregation.
Platelet aggregation was induced by the addition at 37° C. of a solution of adenosine diphosphate to a final concentration of 20 micromolar, and the extent of platelet aggregation monitored using a four channel aggregometer (Model IV Plus, Helena Laboratories, Beaumont, Tex.). […] Inhibition curves for a variety of disintegrins comprising the peptide sequence RGD was determined for each batch of platelets tested as positive controls.

For “CH2 CO-YD .Amp.GDCKGCG.amide [P734 peptide]”, the IC50 came to 67 nM.

The values above are taken from patent US5951981A, “Thrombolytic agents with antithrombotic activity” (Diatide, Inc., priority 1996, dated 1999).
